The results in this text go back to ChEMBL document CHEMBL1201862, “PubChem BioAssay data set” (2004).

Broadly, the GI50 is the concentration at which growth is held to half of that of the control.

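Tested at 5 concentrations; 48 h exposure; 96-well plates; endpoints linearly interpolated, else capped at highest concentration. Abbreviation: GI50, concentration required for 50% inhibition of growth.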 Activity calls are given as the source filed them. Cut-off read from the data, not from the text of the source: active = GI50 up to about 1.1 µM and inactive = higher. Some results are limits rather than exact numbers.

Holding throughout (experiment): DTP human tumour cell line panel, 48 h
For assay [1], the system named is DU-145.
In assay [2] the test system is RPMI-8226.
The test system of assay [3] is PC-3.
Assay [4] concerns A498.
The subject of assay [5] is SK-OV-3.
For assay [6], the system named is NCI-H460.
In assay [7] the test system is SK-MEL-5.
Assay [8] relates to TK-10.
Assay [9] deals with SK-MEL-2.
The test system of assay [10] is CCRF-CEM.
For assay [11], the system named is KM12.
The test system of assay [12] is K562.
The test system of assay [13] is SF-268.
Assay [14] deals with MCF7.
Assay [15] deals with SW-620.
In assay [16] the test system is Hs-578T.
The test system of assay [17] is RXF 393.
Assay [18] relates to MDA-N.
In assay [19] the test system is MOLT-4.

As to `O=C(NC1CCCCC1)c1cc2ccccc2cc1O`, the GI50 in assay [1] was 43.2 µM (inactive); in [2] it was 17.7 µM (inactive); in assay [3], 28.8 µM (inactive); in assay [4] it was 25.4 µM (inactive); in assay [5], 49.1 µM (inactive); in [6] it was 26.1 µM (inactive). Also, the GI50 is 19.6 µM (inactive) in assay [7]; 73.3 µM (inactive) in assay [8]; 23.3 µM (inactive) in assay [9]; 38.9 µM (inactive) in assay [10]; 34.2 µM (inactive) in assay [11]; 27.7 µM (inactive) in assay [12]. Also, the GI50 was 46.1 µM (inactive) in assay [13]; 39.2 µM (inactive) in [14]; 35.2 µM (inactive) in assay [15]; 36.2 µM (inactive) in [16]; 30.5 µM (inactive) in assay [17].
As to `c1ccc2c(c1)nnn2CN1CCOCC1`, the GI50 in [3] is > 100 µM (inactive); in assay [4], > 100 µM (inactive); in assay [18], 71.6 µM (inactive); in assay [6], 46.3 µM (inactive); in assay [7] it was > 100 µM (inactive); in [8], > 100 µM (inactive). The GI50 in [9] was > 100 µM (inactive); in assay [11], > 100 µM (inactive); in assay [12], 45 µM (inactive); in assay [13] it was 63.8 µM (inactive); in [19] it was 35.6 µM (inactive); in assay [15], 28.3 µM (inactive). Also, the GI50 in assay [16] is 19.2 µM (inactive); in [17], 48.5 µM (inactive).
Consider `COc1ccc(CC2C(=O)NC(C)C(=O)N(C)C3Cc4ccc(cc4)Oc4cc(ccc4O)CC(C(=O)NC(C)C(=O)NC(C)C(=O)N2C)N(C)C3=O)cc1` (stereo unspecified), for which the GI50 was < 0.0001 µM (active) in assay [1]; 0.0175 µM (active) in assay [2]; < 0.0001 µM (active) in assay [3]; 0.0175 µM (active) in [4]; < 0.0001 µM (active) in assay [18]; 0.0175 µM (active) in [5]. The GI50 in [6] is 0.0175 µM (active); in [7], 0.0175 µM (active); in assay [8], 0.0257 µM (active); in [10] it was 0.0175 µM (active); in assay [12], 0.0175 µM (active); in assay [19] it was 0.0175 µM (active). Further, the results for the GI50 in assay [14], in assay [15] and in assay [17] were 0.0175 µM (active), 0.0177 µM (active) and 0.0175 µM (active), respectively.
As for `CCC1CCCCN1CC(C(C)=O)C(c1ccccc1)c1c(O)c2ccccc2oc1=O` (stereo unspecified), the GI50 was 69.5 µM (inactive) in assay [2]; > 100 µM (inactive) in assay [4]; > 100 µM (inactive) in [5]; > 100 µM (inactive) in assay [6]; > 100 µM (inactive) in [7]; > 100 µM (inactive) in assay [8]. Besides, the GI50 in assay [9], in assay [10], in [11], in assay [12], in [13] and in [19] was > 100 µM (inactive) each time. For the same molecule, the GI50 in [15] and in assay [17] was > 100 µM (inactive) in each case.
For the molecule `CN(C)S(=O)(=O)Nc1nnc(S(N)(=O)=O)s1`, the GI50 in assay [1], in [2], in assay [3], in [4], in [5] and in [6] was > 100 µM (inactive) in each case. Besides, the GI50 in assay [7], in assay [8], in [9], in assay [11], in [12] and in assay [13] was > 100 µM (inactive) each time. Moreover, the GI50 in assay [19], in [14], in assay [15], in assay [16] and in assay [17] was > 100 µM (inactive) each time.
As to `O=C1NC(N/N=C/c2ccccc2)=N/C1=C\c1ccco1`, the GI50 in assay [1] was 32.9 µM (inactive); in [2], 21.1 µM (inactive); in [3], 33.9 µM (inactive); in [4], > 100 µM (inactive); in assay [5] it was 54.2 µM (inactive); in assay [6], 20.7 µM (inactive). The GI50 in assay [7] was 45.9 µM (inactive); in assay [8], 31.5 µM (inactive); in assay [9], 25.9 µM (inactive); in assay [10], 25.6 µM (inactive); in [11], 47.6 µM (inactive); in [13], 24.5 µM (inactive). The GI50 in assay [19] is 37.1 µM (inactive); in assay [14], 40.2 µM (inactive); in [15], 46 µM (inactive); in assay [16], 31.5 µM (inactive); in assay [17], 25.1 µM (inactive).
For `O=C(O)c1nc2ccccc2nc1Nc1ccc(Cl)c(Cl)c1`, the GI50 in assay [1] was 36.4 µM (inactive); in assay [2] it was 35.3 µM (inactive); in assay [3], 32.6 µM (inactive); in assay [4], 13.1 µM (inactive); in assay [18], 24.9 µM (inactive); in assay [5] it was 28.3 µM (inactive). Further, the GI50 in [6] is 13.6 µM (inactive); in assay [7] it was 15.7 µM (inactive); in [8], 42.9 µM (inactive); in [10], 17.8 µM (inactive); in [11] it was 10.8 µM (inactive); in assay [12] it was 21.7 µM (inactive). The GI50 in assay [13] was 17.9 µM (inactive); in [19] it was 15.8 µM (inactive); in [15], 31.7 µM (inactive); in assay [17], 25.4 µM (inactive).
In the case of `CC1CC[C@@]2(OC1)OC1C[C@H]3[C@@H]4CC=C5CC(OC6OC(CO)C(OC7OC(CO)C(O)C(OC8OCC(O)C(O)C8O)C7OC7OC(CO)C(O)C(O)C7O)C(O)C6O)CCC5(C)[C@H]4CCC3(C)C1[C@@H]2C` (stereo partly specified), the GI50 in assay [1] was 4.86 µM (inactive); in assay [2] it was 6.81 µM (inactive); in [3], 4.06 µM (inactive); in assay [4], 4.69 µM (inactive); in assay [5], 6.55 µM (inactive); in assay [6] it was 5.52 µM (inactive). Moreover, the GI50 is 4.67 µM (inactive) in assay [7]; 7.43 µM (inactive) in assay [8]; 11.7 µM (inactive) in assay [9]; 5.16 µM (inactive) in assay [10]; 5.32 µM (inactive) in assay [11]; 7.23 µM (inactive) in assay [12]. In addition, the GI50 in assay [13] is 4.84 µM (inactive); in assay [19] it was 9.18 µM (inactive); in [14], 6.3 µM (inactive); in assay [15], 3.98 µM (inactive); in [16], 4.66 µM (inactive); in assay [17], 4.76 µM (inactive).
Consider `Nc1ncnc2c1ncn2Cc1cccc(CCl)c1`, for which the GI50 in [1] is 13.8 µM (inactive); in assay [2], 5.38 µM (inactive); in [3], 14.7 µM (inactive); in assay [4], 15.2 µM (inactive); in assay [6], 14.2 µM (inactive); in [7], 16.1 µM (inactive). Further, the GI50 was 17 µM (inactive) in [8]; 15 µM (inactive) in [9]; 15.1 µM (inactive) in [11]; 21.9 µM (inactive) in assay [12]; 14.7 µM (inactive) in assay [13]; 15.2 µM (inactive) in [19]. Also, the GI50 in [14] is 10 µM (inactive); in [15], 12.4 µM (inactive); in assay [16] it was 22.8 µM (inactive); in assay [17], 3.88 µM (inactive).
Consider `CC(=O)OC(Cn1cncn1)(Cn1cncn1)c1ccc(Cl)cc1Cl`, for which the GI50 in [1], in assay [2], in assay [3], in assay [4], in assay [5] and in assay [6] was > 100 µM (inactive) throughout. The GI50 in [7], in assay [8], in [9], in [10], in [11] and in assay [12] was > 100 µM (inactive) each time. The GI50 in [13], in assay [19], in assay [14], in assay [15], in [16] and in [17] was > 100 µM (inactive) each time.
Take `O=C(c1cccnc1)N1N=C(c2ccc3c(c2)OCO3)CC1(O)c1cc(F)c(Cl)cc1Cl` (stereo unspecified): the GI50 in assay [1] was 20.9 µM (inactive); in [2] it was 27.2 µM (inactive); in assay [3], 21.5 µM (inactive); in assay [18] it was 29.3 µM (inactive); in [5], 27.9 µM (inactive); in assay [6], 17.4 µM (inactive). In addition, the GI50 in assay [7] was 15 µM (inactive); in assay [8], 39.1 µM (inactive); in assay [9], 20.7 µM (inactive); in [10], 19.1 µM (inactive); in assay [11], 26.9 µM (inactive); in [12], 27.9 µM (inactive). In addition, the GI50 in assay [13] is 19.9 µM (inactive); in [19], 15.3 µM (inactive); in [15], 23.8 µM (inactive); in [16], 33 µM (inactive); in [17], 12.7 µM (inactive).
Take `O=S(=O)(O)C1CCC(O)C2NCCCC21` (stereo unspecified): the GI50 in assay [1], in assay [2], in [3], in assay [4], in [5] and in assay [6] was > 100 µM (inactive) each time. Further, the GI50 in assay [7], in assay [8], in [9], in assay [11], in assay [12] and in [13] was > 100 µM (inactive) in each case. Besides, the GI50 in assay [19], in assay [14], in [15], in assay [16] and in assay [17] was > 100 µM (inactive) in each case.
